These results are taken from patent publication US9315492B2, “Heterocyclic group contained amino-methanol derivative, and salt, synthetic method and use thereof” (BEIJING FORELAND BIOPHARMA CO., LTD., priority 2012, dated 2016).

Data set [1] concerns the target T1, S1P1 (Homo sapiens (Human), UniProt P21453). Put plainly: S1P1 β-arrestin assay (PathHunter CHO-K1 EDG1). The class given is cell-based. As to conditions: CHO-EDG-1 cells. Here is the method:
2.1 Experimental Materials: Path hunter express CHO-K1 EDG1 β-arrestin GPCR Assay was purchased from DiscoveRx, containing CHO-EDG-1 cells, buffers, substrate-1, substrate-2, cell culture fluid, 96-well cell culture plate.
1) The test compounds were dissolved in DMSO and prepared as a concentration of 20 mM.
2) The concentrations of the test compounds were detected ranging from […] to 20 μM.
4) Assay procedures: OCC culture solution was preheated in water tank at 37° C. Cells were taken out from liquor nitrogen tank, left on the dry-ice, and dissolved in water tank at 37° C. 0.5 ml OCC culture solution was added and blended slowly. The cells were diluted in 11.5 mL OCC culture solution, and 100 μL cell suspension (containing 8333 cells) was added to each well of the 96-well plate. The 96-well plate was incubated for 8 hours under 5% CO2 at 37° C., and 10 μL test compound dissolved in DMSO was added in; 10 μL DMSO was used as negative control. After the plate was incubated for 90 min at 37° C., 55 μL detection solution was added to each well. Then the results were read out by EnVision after the cell plate was incubated for 90 min at room temperature.
The EC50 Value was Calculated by Using Prism 4 Software

Data set [2] concerns autoimmune multiple sclerosis (PLP139-151 immunized mice). Put plainly: Experimental autoimmune multiple sclerosis. It is filed as in vivo. As to conditions: SJL/J mice, 5 and 30 mg/kg/d intragastric, 30 days.
The test system of data set [3] is peripheral blood lymphocyte. As to the kind of experiment: Effects on peripheral blood lymphocyte in mice. It is filed as in vivo, Balb/c mice. As to conditions: intragastric; for toxicity: dose up to 30 mg/kg/d; for toxicity / behavior and weight of mice, pre- versus post-administration: four days; for numbers of peripheral blood lymphocyte reduced compared to pre-administration: once a day for continuous four days. Here is the method: 3. Effects of the Compounds in Example-21 and Example-22 on Peripheral Blood Lymphocyte in Mice
3.1 Experimental Materials:
1) 15% EDTA, PBS, EP tubes, 15 ml centrifuge tube, capillary tube, pipette tip were all purchased from Shanghai biological technology co., Ltd. Hemocyte analysis reagents were purchased from Shanghai Sysmex Company.
2) 35 Balb/c mice (female, 20-22 g), supplied by laboratory animal center of Jilin University.
3) Automated Hematology Analyzer (pocH-100 iV Diff) was purchased from Sysmex Company, Kobe, Japan.
1) The stock solutions of the compounds obtained in Example-21 and Example-22 were prepared with normal saline, and the concentrations are 2 mg/ml and 20 mg/ml, respectively.
2) The mice were divided into […], i.e., control group, low-dose experimental group, and high-dose experimental group. They were weighed and labeled well.
3) Before administration, supraorbital venous blood was collected with 20 μl/mouse which was added to anticoagulant tube containing EDTA, and nosed thoroughly. The numbers of lymphocytes were analyzed by pocH-100.
4) The control group was given normal saline: low-dose experimental groups were given the compounds obtained in Example-21 and Example-22 (5 mg/kg/d), high-dose experimental groups were given the compounds obtained in Example-21 and Example-22 (30 mg/kg/d), with liquid amount of 500 μl/mouse, by intragastric administration. Administration was performed for continuous four days, once a day. After 3.5 hours of the first and fourth administration, blood was collected respectively, and changes in the numbers of lymphocytes were analyzed by pocH-100.

For data set [4], the system named is experimental rheumatoid arthritis (bovine collagen type II immunized mice). Put plainly: Experimental rheumatoid arthritis. As to conditions: DBA/1JLacJ mice, 5 and 30 mg/kg/d intragastric, 30 days. The class given is in vivo.
The target in data set [5] is T1, S1P1. Put plainly: S1P1 GTPγS binding assay. It is filed as biochemical. As to conditions: [35S]-GTPγS, membranes with high-expressed S1P1 (CHO-S1P1). As for the experimental part: 1. S1P1GTPγS Binding Assay
2) T-75 cell culture plate; 150 mm cell culture dish
3) DMEM cell culture fluid; 10% (v/v) fetal bovine serum; 100 U/ml penicillin-100 μg/ml streptomycin; 2 mM […], 1 mg/ml G-418
4) Cell Lysis Buffer: HEPES 20 mM (pH 7.4), EDTA 10 mM
5) Stock solution: HEPES 20 mM, EDTA 0.1 mM
6) Binding Buffer; HEPES 20 mM (pH 7.4), NaCl 100 mM, MgCl2 5 mM, GDP 1 μM, BSA 0.1% (w/v), DMSO 2.5% (v/v),
7) Washing solution: NaH2PO4 10 mM (pH 7.4)
The test compounds were dissolved in DMSO and prepared as a concentration of 20 mM.
The concentrations of the compounds were detected ranging from 0.3 nM to 20 μM.
Control group: […] SIP and SEW2871 were used as positive control and were purchased from Tocris company, and the binding buffet was as negative control.
Test method: wetting membranes by saponin solution, and preparing [^35S]-GTPγS in binding solution (4×). The test compound was prepared as 4× of the final concentration which was then performed serial 3× dilution in 100% DMSO. Membranes with high-expressed S1P1 were collected in 5 ml binding buffer, and 50 μL was added to 96-well (containing 5 μg membrane protein with high-expressed S1P1). 25 μL, test compound was added in each well. The compound was incubated with the membranes for 30 min at room temperature, then 25 μL [^35S]-GTPγS was added, and the experiment was initiated. The 96-well detection plate was incubated for 1 hour at room temperature, filtered by filtermat B, and washed with washing solution for three times. After the plate was dried for 1 h at 50° C., 8 ml scintillator solution was added and counted using scintillation counter.
Result Analysis and Determination of 50% Inhibitory Concentration (IC50):
The IC50 value was calculated by using (Prism 4) software, and 50% inhibitory concentrations were obtained.
For orientation: GTPγS is a poorly hydrolysed GTP analogue; its binding reports G protein activation.

Data set [6] concerns peripheral blood lymphocyte. The note with it: general statement for FTY720; cited from earlier work.

T1 sequence (P21453 whole entry): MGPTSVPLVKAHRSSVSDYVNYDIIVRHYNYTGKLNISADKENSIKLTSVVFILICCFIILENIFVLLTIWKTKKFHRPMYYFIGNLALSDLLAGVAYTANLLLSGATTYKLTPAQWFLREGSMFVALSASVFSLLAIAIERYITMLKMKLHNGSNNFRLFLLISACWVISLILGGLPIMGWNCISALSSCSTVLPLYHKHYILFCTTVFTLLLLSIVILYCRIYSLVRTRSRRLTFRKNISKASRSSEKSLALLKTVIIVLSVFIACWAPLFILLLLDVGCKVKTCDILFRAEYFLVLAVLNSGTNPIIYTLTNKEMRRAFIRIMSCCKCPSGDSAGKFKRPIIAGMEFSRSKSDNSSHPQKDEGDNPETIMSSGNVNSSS

As for “2-(7-amino-5,6,7,8-tetrahydro-7-naphthalenemethanol)-5-(3-methyl-4-isopropoxy)-1,3,4-oxdiazole [Example 22]”, on S1P1 [1], the EC50 (commonly the concentration needed to bring the measured effect to its halfway point) came to 8 nM. The “effect on induction and development of autoimmune multiple sclerosis” value (“effect … of autoimmune multiple sclerosis” for short) in data set [2] is listed as “obviously inhibiting”. Further, the “effect … of autoimmune multiple sclerosis” value in data set [2] (listed as Example-22) was “remarkable inhibitory effects”. In data set [3], the toxicity result is on record as “no toxicity effects”; the “behavior and weight of mice, pre- versus post-administration” value is recorded as “no differences”; the “numbers of peripheral blood lymphocyte reduced compared to pre-administration” value was 78%. In addition, the “effect on induction and development of experimental rheumatoid arthritis” value (“effect … of experimental rheumatoid arthritis” below) in data set [4] was “obviously inhibiting”. In addition, in data set [4] (listed as Example-22), the “effect … of experimental rheumatoid arthritis” value was “remarkable inhibitory effects”. For the same compound, the IC50 – broadly, the point on the concentration scale where inhibition reaches its midpoint – at S1P1 [5] was 3 nM.
With “2-(7-benzylamino-5,6,7,8-tetrahydro-7-naphthalenemethanol)-5-(3-methyl-4-isopropoxy)-1,3,4-oxdiazole [Example 21]”, the “effect … of autoimmune multiple sclerosis” value in data set [2] is “obviously inhibiting”; in data set [2] (listed as Example-21), “remarkable inhibitory effects”. Besides, the toxicity result in data set [3] is “no toxicity effects”. For the same compound, the “behavior and weight of mice, pre- versus post-administration” value in data set [3] is reported as “no differences”. Besides, the “numbers of peripheral blood lymphocyte reduced compared to pre-administration” value in data set [3] worked out at 92%. For the same compound, the “effect … of experimental rheumatoid arthritis” value is “obviously inhibiting” in data set [4] and “remarkable inhibitory effects” in data set [4] (listed as Example-21). On S1P1 [5], this compound gave an IC50 of 179 nM.
`COCCOc1ccc(-c2nnc(-c3ccc4c(c3)CC(N)(CO)CC4)o2)cc1` (centres unmarked) [Example 10, 7-{5-[4-(2-methoxyethoxy)phenyl]-2-[1,3,4]oxdiazolyl]-2-amino-1,2,3,4-tetrahydro-naphthalen-2-yl-methanol] showed an EC50 at S1P1 [1] of 77 nM. On S1P1 [5], this compound displayed an IC50 of 31.7 nM.
In the same order, the values of `CC(C)Oc1ccc(-c2nnc(-c3ccc4c(c3)CC(N)(CO)CC4)o2)cc1C(F)(F)F` (centres unmarked) [Example 11, 7-[5-(3-trifluoromethyl-4-isopropoxyphenyl)-2-[1,3,4]oxdiazolyl]-2-amino-1,2,3,4-tetrahydronaphthalen-2-yl-methanol] are 3.1 nM and 0.4 nM.
In the same order, the values of `COc1ccc(-c2nnc(-c3ccc4c(c3)CC(N)(CO)CC4)o2)cc1C` (centres unmarked) [Example 15, 7-[5-(4-methoxy-3-methylphenyl)-2-1,3,4-oxdiazolyl]-2-amino-1,2,3,4-tetrahydro-naphthalen-2-yl-methanol] are 27 nM and 16 nM.
Regarding `Cc1cc(-c2nnc(-c3ccc4c(c3)CC(CO)(N(C)C)CC4)o2)ccc1OC(C)C` (centres unmarked) [Example 24, 7-[5-(3-methyl-4-isopropoxyphenyl)-2-1,3,4-oxdiazolyl]-2-dimethylamino-1,2,3,4-tetrahydro-naphthalen-2-yl-methanol], on S1P1 [1], the response was half-maximal at 354 nM (EC50). For the same compound, the IC50 at S1P1 [5] came to 46 nM.
`Cc1cc(-c2noc(-c3ccc4c(c3)CC(N)(CO)CC4)n2)ccc1OC(C)C` (centres unmarked) [Example 27, 7-[3-(3-methyl-4-isopropoxyphenyl)-5-1,2,4-oxdiazolyl]-2-amino-1,2,3,4-tetrahydro-naphthalen-2-yl-methanol]: the EC50 on S1P1 [1] was found to be 20 nM. Further, the IC50 at S1P1 [5] worked out at 1.2 nM.
`Cc1cc(-c2nc(-c3ccc4c(c3)CC(N)(CO)CC4)no2)ccc1OC(C)C` (centres unmarked) [Example 29, 7-[5-(3-methyl-4-isopropoxyphenyl)-3-1,2,4-oxdiazolyl]-2-amino-1,2,3,4-tetrahydro-naphthalen-2-yl-methanol] returned an EC50 at S1P1 [1] of 9.9 nM. Besides, the IC50 on S1P1 [5] is 0.4 nM.
In the case of `Cc1cc(-c2cn(-c3ccc4c(c3)CC(N)(CO)CC4)nn2)ccc1OC(C)C` (centres unmarked) [Example 31, 7-[4-(3-methyl-4-isopropoxyphenyl)-1-1,2,3-triazolyl]-2-amino-1,2,3,4-tetrahydro-naphthalen-2-yl-methanol], the EC50 at S1P1 [1] came to 14.3 nM. Further, the IC50 on S1P1 [5] is 5 nM.
On to `CCCCCCCCc1ccc(CCC(N)(CO)CO)cc1` [FTY720], for which, in data set [6], the “number of peripheral blood lymphocytes decreased” value is recorded as 70-80%.
